Reference: patent US7235379B2, “Method and medium for the detection/identification of microorgranisms with esterase activity” (Bio Merieux, priority 2000, dated 2007)
Counter-ions that a name gives are not always drawn. Like-named read-outs stand apart in the source and are kept apart here.

Legend:
[1] = tested on: Salmonella enteritidis 002; test: Ex.1 colony coloration, 5-bromo-3-indolyl nonanoate, DMSO/Tween 20, MacConkey; format: cell-based
Method: (§4) The esterase substrate tested is 5-bromo-3-indolyl nonanoate. A 40 g/l stock solution of substrate is prepared in a mixture of 40% dimethyl sulfoxide and 60% Tween 20. A sufficient volume is added to a supercooled MacConkey medium (without neutral red) to give a substrate concentration of 500 mg/l.

[2] = tested on: Salmonella enteritidis 002; test: Ex.2 colony coloration, 5-bromo-3-indolyl nonanoate, methanol/bile salts, MacConkey; format: cell-based; for intensity of coloration: key: 0: no activity; 0.1: trace of coloration; 0.5: very pale coloration; 1: distinct coloration of low intensity; 2: clear coloration of medium intensity; 3: intense coloration; 4: very intense coloration
Escherichia coli 002 = test: Ex.4 colony coloration, 5-bromo-3-indolyl nonanoate, DMSO/Tween 20, MacConkey; format: cell-based; parameters: key: —: absence of colour or intensity; conditions: 8 ml/l Tergitol 4
Salmonella spp. 017 [3] = test: as above; format: cell-based; conditions: 8 ml/l Tergitol 4
Method: as §4
This medium is then separated into eight portions. […] Microorganisms originating from the Applicant's collection were inoculated onto this medium from a 0.5 McFarland suspension by isolation in three quadrants. The dishes were incubated at 37° C. for 48 hours. The colonies formed were examined visually after 24 and 48 hours of incubation. The coloration of these colonies and the intensity of this coloration were noted.

Salmonella spp. 017 [4] = tested on: Salmonella spp. 017
Method: (§1) The esterase substrate tested is 5-bromo-3-indolyl nonanoate. A 25 g/l stock solution of substrate is prepared in methanol to which 5 g/l of bile salts have been added. A sufficient volume is added to a supercooled MacConkey medium (without neutral red) to give a substrate concentration of 500 mg/l.
(§2) Microorganisms originating from the Applicant's collection were inoculated onto this medium from a 0.5 McFarland suspension by isolation in three quadrants. The dishes were incubated at 37° C. for 48 hours. The colonies formed were examined visually after 24 and 48 hours of incubation. The coloration of these colonies and the intensity of this coloration were noted.
(§3) Note: In the above Examples, the numbers following the strains correspond to the number of each strain referenced in the Applicant's collection. The intensity of coloration corresponds to an arbitrary scale defined as follows: […]

[5] = tested on: Salmonella paratyphi A 006
Method: as §1, §2, §3

[6] = tested on: Salmonella typhimurium 010; test: Ex.2 colony coloration, 5-bromo-3-indolyl nonanoate, methanol/bile salts, MacConkey; format: cell-based; for intensity of coloration: key: 0: no activity; 0.1: trace of coloration; 0.5: very pale coloration; 1: distinct coloration of low intensity; 2: clear coloration of medium intensity; 3: intense coloration; 4: very intense coloration
[7] = tested on: Staphylococcus epidermidis 009; test: Ex.3 colony coloration, 5-bromo-4-chloro-3-indolyl nonanoate 250 mg/l, DMSO/Tween 20; format: cell-based; note: key: 0: no activity; 0.1: trace of coloration; 0.5: very pale coloration; 1: distinct coloration of low intensity; 2: clear coloration of medium intensity; 3: intense coloration; 4: very intense coloration
Method: (§5) The esterase substrate tested is 5-bromo-4-chloro-3-indolyl nonanoate. A 40 g/l stock solution of substrate is prepared in a mixture of 40% dimethyl sulfoxide and 60% Tween 20. A sufficient volume is added to a supercooled MacConkey medium (without neutral red) to give a substrate concentration of 250 mg/l.

[8] = tested on: Staphylococcus aureus 276; test: as above; format: cell-based; note: key: 0: no activity; 0.1: trace of coloration; 0.5: very pale coloration; 1: distinct coloration of low intensity; 2: clear coloration of medium intensity; 3: intense coloration; 4: very intense coloration
Method: as §5

Enterobacter cloacae 086 [9] = test: Ex.2 colony coloration, 5-bromo-3-indolyl nonanoate, methanol/bile salts, MacConkey; format: cell-based
Enterobacter cloacae 086 [10] = test: Ex.1 colony coloration, 5-bromo-3-indolyl nonanoate, DMSO/Tween 20, MacConkey; format: cell-based
Method: as §4

SMILES: CCCCC(CC)CCC(CC(C)C)OS(=O)(=O)O (stereo not shown) [Tergitol 4, 7-ethyl-2-methyl-4-undecanoate hydrogensulfate or its sodium salt]
- color ([1]; 2 ml/l, 24 h): gray
- intensity of coloration ([1]; 2 ml/l, 24 h): 2
- color ([1]; 2 ml/l, 48 h): gray
- intensity of coloration ([1]; 2 ml/l, 48 h): 2
- color ([1]; 4 ml/l, 24 h): gray
- intensity of coloration ([1]; 4 ml/l, 24 h): 3
- color ([1]; 4 ml/l, 48 h): gray
- intensity of coloration ([1]; 4 ml/l, 48 h): 3
- color ([1]; 8 ml/l, 24 h): gray
- intensity of coloration ([1]; 8 ml/l, 24 h): 3.5
- color ([1]; 8 ml/l, 48 h): gray
- intensity of coloration ([1]; 8 ml/l, 48 h): 3.5
- color ([1]; 16 ml/l, 24 h): gray
- intensity of coloration ([1]; 16 ml/l, 24 h): 3.5
- color ([1]; 16 ml/l, 48 h): gray
- intensity of coloration ([1]; 16 ml/l, 48 h): 3.5
- color ([2]; 2 ml/l, 24 h): gray
- intensity of coloration ([2]; 2 ml/l, 24 h): 2
- color ([2]; 2 ml/l, 48 h): gray
- intensity of coloration ([2]; 2 ml/l, 48 h): 3
- color ([2]; 4 ml/l, 24 h): gray
- intensity of coloration ([2]; 4 ml/l, 24 h): 3
- color ([2]; 4 ml/l, 48 h): gray
- intensity of coloration ([2]; 4 ml/l, 48 h): 3
- color ([2]; 8 ml/l, 24 h): gray
- intensity of coloration ([2]; 8 ml/l, 24 h): 0.5
- color ([2]; 8 ml/l, 48 h): gray
- intensity of coloration ([2]; 8 ml/l, 48 h): 2
- color ([2]; 16 ml/l, 24 h): gray
- intensity of coloration ([2]; 16 ml/l, 24 h): 0.1
- color ([2]; 16 ml/l, 48 h): gray
- intensity of coloration ([2]; 16 ml/l, 48 h): 1
- color (Escherichia coli 002; 24 h): —
- color (Escherichia coli 002; 48 h): —
- color (Salmonella spp. 017 [3]; 24 h): gray
- intensity of coloration (Salmonella spp. 017 [3]; 24 h): 2.5
- color (Salmonella spp. 017 [3]; 48 h): gray
- intensity of coloration (Salmonella spp. 017 [3]; 48 h): 3.5
- color (Salmonella spp. 017 [4]; 2 ml/l, 24 h): gray
- intensity of coloration (Salmonella spp. 017 [4]; 2 ml/l, 24 h): 1
- color (Salmonella spp. 017 [4]; 2 ml/l, 48 h): gray
- intensity of coloration (Salmonella spp. 017 [4]; 2 ml/l, 48 h): 1.5
- color (Salmonella spp. 017 [4]; 4 ml/l, 24 h): gray
- intensity of coloration (Salmonella spp. 017 [4]; 4 ml/l, 24 h): 1
- color (Salmonella spp. 017 [4]; 4 ml/l, 48 h): gray
- intensity of coloration (Salmonella spp. 017 [4]; 4 ml/l, 48 h): 1.5
- color (Salmonella spp. 017 [4]; 8 ml/l, 24 h): gray
- intensity of coloration (Salmonella spp. 017 [4]; 8 ml/l, 24 h): 1
- color (Salmonella spp. 017 [4]; 8 ml/l, 48 h): gray
- intensity of coloration (Salmonella spp. 017 [4]; 8 ml/l, 48 h): 1.5
- color (Salmonella spp. 017 [4]; 16 ml/l, 24 h): gray
- intensity of coloration (Salmonella spp. 017 [4]; 16 ml/l, 24 h): 1
- color (Salmonella spp. 017 [4]; 16 ml/l, 48 h): gray
- intensity of coloration (Salmonella spp. 017 [4]; 16 ml/l, 48 h): 1.5
- color ([5]; 2 ml/l, 24 h): gray
- intensity of coloration ([5]; 2 ml/l, 24 h): 0.1
- color ([5]; 2 ml/l, 48 h): gray
- intensity of coloration ([5]; 2 ml/l, 48 h): 0.5
- color ([5]; 4 ml/l, 24 h): gray
- intensity of coloration ([5]; 4 ml/l, 24 h): 0.1
- color ([5]; 4 ml/l, 48 h): gray
- intensity of coloration ([5]; 4 ml/l, 48 h): 1
- color ([6]; 2 ml/l, 24 h): gray
- intensity of coloration ([6]; 2 ml/l, 24 h): 2
- color ([6]; 2 ml/l, 48 h): gray
- intensity of coloration ([6]; 2 ml/l, 48 h): 2
- color ([6]; 4 ml/l, 24 h): gray
- intensity of coloration ([6]; 4 ml/l, 24 h): 2
- color ([6]; 4 ml/l, 48 h): gray
- intensity of coloration ([6]; 4 ml/l, 48 h): 3
- color ([6]; 8 ml/l, 24 h): gray
- intensity of coloration ([6]; 8 ml/l, 24 h): 3
- color ([6]; 8 ml/l, 48 h): gray
- intensity of coloration ([6]; 8 ml/l, 48 h): 3
- color ([6]; 16 ml/l, 24 h): gray
- intensity of coloration ([6]; 16 ml/l, 24 h): 3
- color ([6]; 16 ml/l, 48 h): gray
- intensity of coloration ([6]; 16 ml/l, 48 h): 3.5
- intensity of coloration ([7]; 0.001 ml/l, 24 h): 2
- intensity of coloration ([7]; 0.001 ml/l, 48 h): 2
- intensity of coloration ([7]; 0.01 ml/l, 24 h): 3
- intensity of coloration ([7]; 0.01 ml/l, 48 h): 3
- intensity of coloration ([7]; 0.1 ml/l, 24 h): 2
- intensity of coloration ([7]; 0.1 ml/l, 48 h): 3
- intensity of coloration ([7]; 1 ml/l (1st col), 24 h): 2
- intensity of coloration ([7]; 1 ml/l (1st col), 48 h): 2
- intensity of coloration ([7]; 1 ml/l (2nd col), 24 h): 0.5
- intensity of coloration ([7]; 1 ml/l (2nd col), 48 h): 3
- intensity of coloration ([8]; 0.001 ml/l, 24 h): 2
- intensity of coloration ([8]; 0.001 ml/l, 48 h): 2
- intensity of coloration ([8]; 0.01 ml/l, 24 h): 2
- intensity of coloration ([8]; 0.01 ml/l, 48 h): 3
- intensity of coloration ([8]; 0.1 ml/l, 24 h): 3
- intensity of coloration ([8]; 0.1 ml/l, 48 h): 3
- intensity of coloration ([8]; 1 ml/l (1st col), 24 h): 2
- intensity of coloration ([8]; 1 ml/l (1st col), 48 h): 3
- intensity of coloration ([8]; 1 ml/l (2nd col), 24 h): 2
- intensity of coloration ([8]; 1 ml/l (2nd col), 48 h): 3
- color (Enterobacter cloacae 086 [9]; 2 ml/l, 24 h): gray
- intensity of coloration (Enterobacter cloacae 086 [9]; 2 ml/l, 24 h): 0.5
- color (Enterobacter cloacae 086 [9]; 2 ml/l, 48 h): gray
- intensity of coloration (Enterobacter cloacae 086 [9]; 2 ml/l, 48 h): 2
- color (Enterobacter cloacae 086 [9]; 4 ml/l, 24 h): gray
- intensity of coloration (Enterobacter cloacae 086 [9]; 4 ml/l, 24 h): 1
- color (Enterobacter cloacae 086 [9]; 4 ml/l, 48 h): gray
- intensity of coloration (Enterobacter cloacae 086 [9]; 4 ml/l, 48 h): 3
- color (Enterobacter cloacae 086 [9]; 8 ml/l, 24 h): gray
- intensity of coloration (Enterobacter cloacae 086 [9]; 8 ml/l, 24 h): 0.5
- color (Enterobacter cloacae 086 [9]; 8 ml/l, 48 h): gray
- intensity of coloration (Enterobacter cloacae 086 [9]; 8 ml/l, 48 h): 1
- color (Enterobacter cloacae 086 [9]; 16 ml/l, 24 h): gray
- intensity of coloration (Enterobacter cloacae 086 [9]; 16 ml/l, 24 h): 0.5
- color (Enterobacter cloacae 086 [9]; 16 ml/l, 48 h): gray
- intensity of coloration (Enterobacter cloacae 086 [9]; 16 ml/l, 48 h): 1
- color (Enterobacter cloacae 086 [10]; 2 ml/l, 24 h): gray
- intensity of coloration (Enterobacter cloacae 086 [10]; 2 ml/l, 24 h): 0.5
- color (Enterobacter cloacae 086 [10]; 2 ml/l, 48 h): gray
- intensity of coloration (Enterobacter cloacae 086 [10]; 2 ml/l, 48 h): 2
- color (Enterobacter cloacae 086 [10]; 4 ml/l, 24 h): gray
- intensity of coloration (Enterobacter cloacae 086 [10]; 4 ml/l, 24 h): 1
- color (Enterobacter cloacae 086 [10]; 4 ml/l, 48 h): gray
- intensity of coloration (Enterobacter cloacae 086 [10]; 4 ml/l, 48 h): 3
- color (Enterobacter cloacae 086 [10]; 8 ml/l, 24 h): gray
- intensity of coloration (Enterobacter cloacae 086 [10]; 8 ml/l, 24 h): 0.5
- color (Enterobacter cloacae 086 [10]; 8 ml/l, 48 h): gray
- intensity of coloration (Enterobacter cloacae 086 [10]; 8 ml/l, 48 h): 1
- color (Enterobacter cloacae 086 [10]; 16 ml/l, 24 h): gray
- intensity of coloration (Enterobacter cloacae 086 [10]; 16 ml/l, 24 h): 0.5
- color (Enterobacter cloacae 086 [10]; 16 ml/l, 48 h): gray
- intensity of coloration (Enterobacter cloacae 086 [10]; 16 ml/l, 48 h): 1
